From article PMC7321065, “Discovery of New Schiff Bases Tethered Pyrazole Moiety: Design, Synthesis, Biological Evaluation, and Molecular Docking Study as Dual Targeting DHFR/DNA Gyrase Inhibitors with Immunomodulatory Activity” (Molecules, 2020)

Assays:
Enterococcus faecalis = assay: Inhibition zone, agar plate diffusion; type: cell-based; details: Ef, mm ± standard deviation, sample at 0.5 mg/mL, read-out: Inhibition zone (IZ)
Experimental: (§1) Antimicrobial activities of the newly formed Schiff bases (6a–d, 7a–d, 8a–d, and 9a–d) and reference drugs were evaluated against three Gram-positive, three Gram-negative, and two fungi strain at Al-Azhar University, Cairo, Egypt. The inhibition zones (IZ, in mm ± standard deviation) and the minimal inhibitory concentration (MIC) (μg/mL) were determined by the conventional paper disk diffusion method.
(§2) In Vitro Antimicrobial Activities
(§3) The antimicrobial activities inhibition zone (IZ, mm±standard deviation) of pyrazole Schiff bases ( 6a-d , 7a-d, 8a-d and 9a-d ) was measurement according to the agar plate diffusion method. Briefly, 100 µl of the […]
(§4) […] of each sample (at 0.5 mg/mL) was added to each well (10 mm diameter holes cut in the agar gel). The plates were incubated for 24 h at 37 °C (for bacteria and yeast) and for 72 h at 27 °C (for filamentous fungi), each test was repeated three times. After incubation, the microorganism's growth was observed. […]
(§5) drugs while Amphotericin B was used as standard antifungal drug. The resulting inhibition zone diameters were measured in millimeters and used as criterion for the antimicrobial activity. Solvent controls (DMSO) were included in every experiment as negative controls. DMSO was used for dissolving […]
(§6) the tested microorganisms. […]

Bacillus subtilis = assay: Inhibition zone, agar plate diffusion; type: cell-based; details: Bs, mm ± standard deviation, sample at 0.5 mg/mL, read-out: Inhibition zone (IZ)
Experimental: as §1, §2, §3, §4, §5, §6

Pseudomonas aeruginosa = assay: Inhibition zone, agar plate diffusion; type: cell-based; details: Pa, mm ± standard deviation, sample at 0.5 mg/mL, read-out: Inhibition zone (IZ)
Experimental: as §1, §2, §3, §4, §5, §6

Escherichia coli = assay: Inhibition zone, agar plate diffusion; type: cell-based; details: Ec, mm ± standard deviation, sample at 0.5 mg/mL, read-out: Inhibition zone (IZ)
Experimental: as §1, §2, §3, §4, §5, §6

Staphylococcus aureus = assay: Inhibition zone, agar plate diffusion; type: cell-based; details: Sa, mm ± standard deviation, sample at 0.5 mg/mL, read-out: Inhibition zone (IZ)
Experimental: as §1, §2, §3, §4, §5, §6
(§7) Bacteria were grown on nutrient agar medium, while fungi and yeast were grown on Sabouraud agar medium. […]

Fusarium oxysporum = assay: Inhibition zone, agar plate diffusion; type: cell-based; details: Fo, mm ± standard deviation, sample at 0.5 mg/mL, read-out: Inhibition zone (IZ)
Experimental: as §1, §2, §3, §4, §5, §6, §7

Candida albicans = assay: Inhibition zone, agar plate diffusion; type: cell-based; details: Ca, mm ± standard deviation, sample at 0.5 mg/mL, read-out: Inhibition zone (IZ)
Experimental: as §1, §2, §3, §4, §5, §6, §7

Salmonella typhi = assay: Inhibition zone, agar plate diffusion; type: cell-based; details: Salmonella enterica, St, mm ± standard deviation, sample at 0.5 mg/mL, read-out: Inhibition zone (IZ)
Experimental: as §1, §2, §3, §4, §5, §6, §7

Structure (SMILES) | zone of inhibition at 500 µg/mL (Enterococcus faecalis) | zone of inhibition at 500 µg/mL (Bacillus subtilis) | zone of inhibition at 500 µg/mL (Pseudomonas aeruginosa) | zone of inhibition at 500 µg/mL (Escherichia coli) | zone of inhibition at 500 µg/mL (Staphylococcus aureus) | zone of inhibition at 500 µg/mL (Fusarium oxysporum) | zone of inhibition at 500 µg/mL (Candida albicans) | zone of inhibition at 500 µg/mL (Salmonella typhi) | melting point
COc1ccc(Nc2n[nH]c(N=Cc3cc(OC)c(OC)c(OC)c3)c2C(N)=O)cc1 [9a, 3-(p-Methoxyphenylamino)-5-(3,4,5-trimethoxybenzylideneamino)-1H-pyrazole-4-carboxamide] | 19 ± 0.14 mm | 25 ± 0.21 mm | 17 ± 0.2 mm | 22 ± 0.18 mm | 21 ± 0.17 mm | 19 ± 0.55 mm | 22 ± 0.19 mm | 20 ± 0.33 mm | 222 to 224 °C
COc1ccc(Nc2n[nH]c(N=Cc3cc(OC)c(OC)c(OC)c3)c2C(=O)Nc2ccc(C)cc2)cc1 [9c, 3-(p-Methoxyphenylamino)-N-p-tolyl-5-(3,4,5-trimethoxybenzylideneamino)-1H-pyrazole-4-carboxamide] | 21 ± 0.72 mm | 22 ± 0.18 mm | < 8 mm | 23 ± 0.44 mm | 22 ± 0.34 mm | 19 ± 0.28 mm | 21 ± 0.5 mm | 23 ± 0.33 mm | 234 to 236 °C
COc1ccc(Nc2n[nH]c(N=Cc3c(C)n(C)n(-c4ccccc4)c3=O)c2C(N)=O)cc1 [6a, 5-((1,5-Dimethyl-3-oxo-2-phenyl-2,3-dihydro-1H-pyrazol-4-yl)methyleneamino)-3-(p-methoxyphenylamino)-1H-pyrazole-4-carboxamide] | 21 ± 0.11 mm | 21 ± 0.4 mm | 20 ± 0.15 mm | 24 ± 0.2 mm | 25 ± 0.31 mm | 13 ± 0.3 mm | 22 ± 0.35 mm | 18 ± 0.16 mm | 274 to 276 °C
